Experimental data: patent publication US12226426B2, “Combination therapy” (IMPERIAL COLLEGE INNOVATIONS LIMITED, priority 2018, dated 2025)

Columns and labels:
WT E. coli = assay: Alkylating-agent sensitivity assay (colony forming units); conditions: MMS 20 mM, 30 minutes at 37° C., FIG. 1
alkB mutants = conditions: MMS 20 mM, alkB mutants compared with WT, FIG. 1

COS(C)(=O)=O [MMS, Methyl methanesulfonate]
effect on bacterial growth (CFU) (WT E. coli): minimal effect on bacterial growth
Sensitivity to MMS (CFU) (alkB mutants): significantly increased
